From EP0125695B1, “2-Bromo-1-tetralone derivatives” (KIRIN BEER KABUSHIKI KAISHA, priority 1983, dated 1984)
Values after ≈ are worked out from the molar mass of the structure shown.

Columns and labels:
Trichophyton asteroides = assay: Minimum inhibitory concentration on Sabouraud's agar medium (Yamano et al. method); format: cell-based; conditions: 168 h, agar plate, 27°C for 7 days
Description: (§1) Sabouraud's agar medium was used as a culture medium. (A liquid culture medium was prepared from the same ingredients except for agar).
(§2) This culture medium was prepared by dissolving the above ingredients under heat, and the medium thus prepared was sterilized under the conditions of 1.05 bar (15 Ibs.lin^2) for 15 minutes.
(§3) The microorganisms to be tested were fungi of the species Trichophyton mentagrophytes (A), Trichophyton asteroides (B) and Candida a/bicans (C). Each of these microorganisms was cultivated on the corresponding slant medium at 27°C for 7 days. A loopful of each of the microorganisms (A), (B) and (C) was triturated in a mortar, charged into a test tube containing 10 ml of physiological saline solution, and suspended therein with a thermomixer. Each of the suspensions thus prepared was used in the test.
(§4) 9 ml of the culture medium and 1 ml of a dilute sample were thoroughly admixed with each other in a Petri dish to prepare an agar plate, which was then streaked with the suspension containing each of the microorganisms to be tested by using a sterile platinum wire loop. The microorganisms (A), (B) and (C) thus inoculated on the agar plates were cultivated at 27°C for 7 days, and thereafter the MIC thereof was determined.

[1] = test system: Trichophyton mentagrophytes; assay: as above; format: cell-based; conditions: 168 h, agar plate, 27°C for 7 days
Description: as §1, §2, §3, §4

Candida albicans = assay: as above; format: cell-based; conditions: 168 h, agar plate, 27°C for 7 days
Description: as §1, §2, §3, §4

P388 leukemia = assay: Antitumor activity against intraperitoneally transplanted P388 leukemia in mice; format: in vivo; conditions: given 1 day and 5 days after transplantation of P388 leukemia 1 x 10^6 cells/mouse i.p., survival days of saline control group = 100
Description: For example, into CDF, mice were intraperitoneally transplanted P388 leukemia 1 x 10^6 cells/mouse as a suspension, and 2-bromo-6,7-dichloro-1-tetralone which is typical of the compounds of the present invention was administered to the mice 1 day and 5 days respectively after the transplantation. The effect of the test compound was evaluated in terms of the increase of life span (%) as calculated by determining the survival days of the control group consisting of mice administered with physiological saline solution as 100.

Toxicity (LD50) to mice = conditions: mouse, in vivo

| MIC (Trichophyton asteroides) | MIC [1] | MIC (Candida albicans) | SMILES | Survival time relative to saline control (T/C, control = 100) (P388 leukemia; Dose 10.0 mg/kg/day) | Survival time relative to saline control (T/C, control = 100) (P388 leukemia; Dose 50.0 mg/kg/day) | LD50 (Toxicity (LD50) to mice; Oral) | LD50 (Toxicity (LD50) to mice; ip, Intraperitoneal) | LD50 (Toxicity (LD50) to mice; sc, Subcutaneous) |
| --- | --- | --- | --- | --- | --- | --- | --- | --- |
| 1.56 µg/mL (≈ 5.31 µM) | 1.56 µg/mL (≈ 5.31 µM) | 1.56 µg/mL (≈ 5.31 µM) | O=C1c2cc(Cl)cc(Cl)c2CCC1Br (centres unmarked) [2-bromo-5,7-dichloro-1-tetralone] | – | – | – | – | – |
| 3.13 µg/mL (≈ 12.9 µM) | 3.13 µg/mL (≈ 12.9 µM) | 6.25 µg/mL (≈ 25.7 µM) | O=C1c2cc(F)ccc2CCC1Br (centres unmarked) [2-bromo-7-fluoro-1-tetralone] | – | – | – | – | – |
| 6.25 µg/mL (≈ 17.7 µM) | 6.25 µg/mL (≈ 17.7 µM) | > 200 µg/mL | COC1=CC(=O)C[C@@H](C)[C@]12Oc1c(Cl)c(OC)cc(OC)c1C2=O [griseofulvin, reference compound] | – | – | – | – | – |

| SMILES | MIC (Trichophyton asteroides) | MIC [1] | MIC (Candida albicans) | Survival time relative to saline control (T/C, control = 100) (P388 leukemia; Dose 10.0 mg/kg/day) | Survival time relative to saline control (T/C, control = 100) (P388 leukemia; Dose 50.0 mg/kg/day) | LD50 (Toxicity (LD50) to mice; Oral) | LD50 (Toxicity (LD50) to mice; ip, Intraperitoneal) | LD50 (Toxicity (LD50) to mice; sc, Subcutaneous) |
| --- | --- | --- | --- | --- | --- | --- | --- | --- |
| O=C1c2cc(Cl)c(Cl)cc2CCC1Br (centres unmarked) [2-bromo-6,7-dichloro-1-tetralone] | 0.78 to 1.56 µg/mL (≈ 2.65 to 5.31 µM) | 0.78 µg/mL (≈ 2.65 µM) | 1.56 µg/mL (≈ 5.31 µM) | 129% | 140% | > 1500 mg/kg | 820 mg/kg | > 1500 mg/kg |
